Assay results: US9707417B2, “Use of benzotropolone derivatives as UV absorbers and antioxidants and their use in sunscreens and/or cosmetic compositions” (BASF SE, priority 2008, dated 2017)
“Also recorded” adds a separate entry of the source.

Key:
[1] = UV shielding properties (UV spectra in ethanol); type: physicochemical; design: Absorption maximum 1 λmax / Absorption maximum 2 λmax: unit not given here; conditions: for Absorption maximum 1 A^1%1 cm / Absorption maximum 1 λmax / Absorption maximum 2 A^1%1 cm / Absorption maximum 2 λmax: UV spectra in ethanol
Text: The UV shielding properties of the benzotropolone derivatives were investigated by measuring their UV spectra in ethanol.
In the following table the investigated absorption maxima (λmax) together with the corresponding A^1%1cm values are listed.

[2] = Measurement of photostability (irradiation of highly diluted solution of the UV-filter, analysis by UV-spectroscopy); type: physicochemical; conditions: for Half time: photostability, diluted solution in ethanol, first order kinetic model, half-life under conditions of COLIPA standard sun irradiation
Protocol: The method used for assessment of photostability is based on the irradiation of a highly diluted solution of the UV-filter.
The analysis after certain doses of irradiation is performed by UV-spectroscopy. The concentration of the UV-absorber in ethanol is adjusted to values between 1·10^−5 and 1·10^−6 mol/l, such that the absorbance of the solution in cuvette of 1 cm optical path length is ≦than 0.2. The mutual protection of filter molecules can be excluded under such conditions.
Prior to irradiation of a sample the UVB-intensity at the sample position is measured with a UV-radiometer (RM-12, Dr. Gröbel Electronic GmbH).
This radiometer is calibrated by comparison with a measurement of the spectral output of the metal halide lamp (including light guide and cut-off filter) using a wavelength-resolved radiometer (Gamma C11).
Therefore the relationship of the reading of the RM-12 radiometer and the corresponding spectral output of the lamp is known, and one is able to determine the wavelength-resolved intensities by measuring the UVB-intensity. By changing the distance between the end of the light guide and the cuvette, the UVB-intensity can be varied in the range of 100 μW/cm^2 and 4500 μW/cm^2.
For sample irradiation the highest possible intensity was used (4.5 mW/cm^2 UVB-intensity measured with the Macam 103 radiometer).
The irradiation time is varied from 0 to 180 min.
The dose the sample has received after 180 min corresponds to 60 MED.
During irradiation the sample was stirred. After certain intervals of irradiation, the samples were analyzed in a UV-spectrometer (Perkin Elmer, Lambda 16).
From the absorbance values at each dose of irradiation the concentration may be calculated using Lambert-Beer's law.
In order to get the half-life of the substance, a first order kinetic model was fitted to the experimental data. Since the UV-spectrum of the lamp and the UV-spectrum of the COLIPA standard sun are known, one can calculate the respective half-life of the UV-absorber under conditions of COLIPA standard sun irradiation [Bernd Herzog, Stefan Müller, Myriam Sohn, Uli Osterwalder, “New Insight and Prediction of Photostability of Sunscreens”, SÖFW Journal 133, 26-36 (2007)].

SMILES	Absorption maximum 1 A^1%1 cm [1]	Absorption maximum 1 λmax [1]	Absorption maximum 2 A^1%1 cm [1]	Absorption maximum 2 λmax [1]	photostability (in words) [2]	Half time [2]	shielding properties in the UV region (in words) [1]
COC(=O)c1cc(O)c(=O)c2c(O)c(O)cc(CCO)c2c1 [Compound B-52]	437	280	176	399	–	–	–
COc1cc2cc(C(=O)O)cc(O)c(=O)c2c(O)c1O [Compound B-4]	864	307	305	396	high photostability	16.6 h	high shielding properties in the UV region; also recorded: UV-C/UV-B shielding properties as well as UV-A shielding properties
COC(=O)c1cc(O)c(=O)c2c(O)c(O)c(OCCCCCC(=O)O)cc2c1 [Compound B-15]	754	310	269	398	–	–	–
COC(=O)c1cc(O)c(=O)c2c(O)c(O)c(O[C@@H]3O[C@H](CO)[C@@H](O)[C@H](O)[C@H]3O)cc2c1 [Compound B-7]	593	287	246	399	–	–	–
Cc1cc2cc(C(=O)NCCCCP(=O)(O)O)cc(O)c(=O)c2c(O)c1O [Compound B-49]	601	278	270	381	–	–	–
CCc1ccc2c(CC)c(O)c(O)c(O)c2c(=O)c1O [Compound B-54]	1142	309	–	–	–	–	–
COc1cc2cc(CO)cc(O)c(=O)c2c(O)c1O [Compound B-50]	1027	305	–	–	–	–	–
O=C(O)c1cc(O)c(=O)c2c(O)c(O)ccc2c1 [Compound B-2]	966	276	460	400	high photostability	33.6 h	high shielding properties in the UV region; also recorded: UV-C/UV-B shielding properties as well as UV-A shielding properties
COC(=O)c1cc(O)c(=O)c2c(O)c(O)c(O[C@@H]3O[C@H](CO)[C@H](O)[C@H](O)[C@H]3O)cc2c1 [Compound B-16]	550	288	204	397	–	–	–
O=C(O)c1cc(O)c(=O)c2c(O)c(O)c(O[C@@H]3O[C@H](CO)[C@@H](O)[C@H](O)[C@H]3O)cc2c1 [Compound B-59]	497	300	174	388	–	–	–
Cc1cc2cc(CO)cc(O)c(=O)c2c(O)c1O [Compound B-61]	711	295	–	–	–	–	–
CCOC(=O)CCCCCOc1cc2cc(C(=O)O)cc(O)c(=O)c2c(O)c1O [Compound B-36]	750	309	250	398	high photostability	22.8 h	–
COC(=O)c1cc(O)c(=O)c2c(O)c(O)c(OC)cc2c1 [Compound B-5]	1008	308	399	403	extraordinary high inherent photostability	116.5 h	high shielding properties in the UV region; also recorded: UV-C/UV-B shielding properties as well as UV-A shielding properties
COC(=O)c1cc(O)c(=O)c2c(OC)c(O)c(OCCO)cc2c1 [Compound B-45]	804	306	302	401	–	–	–
COC(=O)c1cc(O)c(=O)c2c(O)c(O)ccc2c1 [Compound B-3]	1007	277	516	395	extraordinary high inherent photostability	61.9 h	high shielding properties in the UV region; also recorded: UV-C/UV-B shielding properties as well as UV-A shielding properties
CCCCc1ccc2c(CCCC)c(O)c(O)c(O)c2c(=O)c1O [Compound B-55]	788	311	–	–	–	–	–
CCCCCCCCCCCCOc1cc2cc(C(=O)OCCCCCCCC)cc(O)c(=O)c2c(O)c1O [Compound B-33]	575	310	210	403	–	–	–
COC(=O)c1cc(O)c(=O)c2c(O)c(O)c(C)cc2c1 [Compound B-6]	997	280	447	396	–	–	high shielding properties in the UV region; also recorded: UV-C/UV-B shielding properties as well as UV-A shielding properties
O=c1c(O)cccc2cc(O)c(O)c(O)c12 [Compound B-1]	935	281	1179	305	high photostability	31.5 h	high shielding properties in the UV region; also recorded: high absorption in the UV-C and UV-B region
CCCCCCCCCCCCOC(=O)c1cc(O)c(=O)c2c(O)c(O)c(OCCCCCCCCCCCC)cc2c1 [Compound B-53]	533	309	193	402	–	–	–
COC(=O)c1cc(O)c(=O)c2c(O)c(O)c(O[C@@H]3O[C@H](COC(C)=O)[C@H](OC(C)=O)[C@H](OC(C)=O)[C@H]3OC(C)=O)cc2c1 [Compound B-37]	394	285	88	393	–	–	–
CCCCCCCCOC(=O)c1cc(O)c(=O)c2c(O)c(O)c(C)cc2c1 [Compound B-34]	748	282	333	398	–	–	–
CCCCCCCCCCCCOc1cc2cc(C(=O)OC)cc(O)c(=O)c2c(O)c1O [Compound B-35]	611	310	231	404	–	–	–
COC(=O)c1cc(O)c(=O)c2c(O)c(O)cc(CCC(=O)O)c2c1 [Compound B-62]	799	281	383	406	–	–	–
Cc1cc2cc(C(=O)O)cc(O)c(=O)c2c(O)c1O [Compound B-31]	1065	281	477	393	–	–	–
